Source: ChEMBL document CHEMBL2440076, “New triarylpyrazoles as broad-spectrum anticancer agents: design, synthesis, and biological evaluation” (Eur J Med Chem, 2013)

Experiments:
[1] = system: U-251; test: Growth inhibition of human U251 cells assessed as cell growth at 10 uM after 48 hrs by sulforhodamine B assay; assay type: functional; details: U-251, 48 h, read-out: Activity
[2] = system: RPMI-8226; test: Growth inhibition of human RPMI8226 cells after 48 hrs by sulforhodamine B assay; assay type: functional, cell-based; details: RPMI-8226, 48 h
[3] = system: NCI-H322M; test: Growth inhibition of human NCI-H322M cells after 48 hrs by sulforhodamine B assay; assay type: functional
[4] = system: BT-549; test: Growth inhibition of human BT549 cells assessed as cell growth at 10 uM after 48 hrs by sulforhodamine B assay; assay type: functional; details: BT-549, 48 h, read-out: Activity
[5] = system: DU-145; test: Growth inhibition of human DU145 cells assessed as cell growth at 10 uM after 48 hrs by sulforhodamine B assay; assay type: functional; details: DU-145, 48 h, read-out: Activity
[6] = system: RXF 393; test: Growth inhibition of human RXF393 cells after 48 hrs by sulforhodamine B assay; assay type: functional; details: RXF 393, 48 h
[7] = system: OVCAR-4; test: Growth inhibition of human OVCAR4 cells assessed as cell growth at 10 uM after 48 hrs by sulforhodamine B assay; assay type: functional; details: OVCAR-4, 48 h, read-out: Activity
[8] = system: DU-145; test: Growth inhibition of human DU145 cells after 48 hrs by sulforhodamine B assay; assay type: functional; details: DU-145, 48 h
[9] = system: ACHN; test: Growth inhibition of human ACHN cells assessed as cell growth at 10 uM after 48 hrs by sulforhodamine B assay; assay type: functional; details: read-out: Activity
[10] = system: CCRF-CEM; test: Growth inhibition of human CCRF-CEM cells after 48 hrs by sulforhodamine B assay; assay type: functional
[11] = Growth inhibition of human Hs 578T cells assessed as cell growth at 10 uM after 48 hrs by sulforhodamine B assay; assay type: functional; details: read-out: Activity
[12] = system: OVCAR-5; test: Growth inhibition of human OVCAR5 cells assessed as cell growth at 10 uM after 48 hrs by sulforhodamine B assay; assay type: functional; details: OVCAR-5, 48 h, read-out: Activity
[13] = system: SN12C; test: Growth inhibition of human SN12C cells assessed as cell growth at 10 uM after 48 hrs by sulforhodamine B assay; assay type: functional; details: read-out: Activity
[14] = system: SW-620; test: Growth inhibition of human SW620 cells after 48 hrs by sulforhodamine B assay; assay type: functional; details: SW-620, 48 h
[15] = system: A549; test: Growth inhibition of human A549/ATCC cells after 48 hrs by sulforhodamine B assay; assay type: functional; details: A549, 48 h
[16] = system: CCRF-CEM; test: Growth inhibition of human CCRF-CEM cells assessed as cell growth at 10 uM after 48 hrs by sulforhodamine B assay; assay type: functional; details: read-out: Activity
[17] = system: IGROV-1; test: Growth inhibition of human IGROV1 cells assessed as cell growth at 10 uM after 48 hrs by sulforhodamine B assay; assay type: functional; details: IGROV-1, 48 h, read-out: Activity
[18] = system: KM12; test: Growth inhibition of human KM12 cells after 48 hrs by sulforhodamine B assay; assay type: functional, cell-based; details: KM12, 48 h
[19] = system: BT-549; test: Growth inhibition of human BT549 cells after 48 hrs by sulforhodamine B assay; assay type: functional; details: BT-549, 48 h
[20] = system: K562; test: Growth inhibition of human K562 cells after 48 hrs by sulforhodamine B assay; assay type: functional; details: K562, 48 h
[21] = system: IGROV-1; test: Growth inhibition of human IGROV1 cells after 48 hrs by sulforhodamine B assay; assay type: functional; details: IGROV-1, 48 h
[22] = system: UO-31; test: Growth inhibition of human UO31 cells after 48 hrs by sulforhodamine B assay; assay type: functional; details: UO-31, 48 h
[23] = system: MCF7; test: Growth inhibition of human MCF7 cells after 48 hrs by sulforhodamine B assay; assay type: functional; details: MCF7, 48 h
[24] = system: OVCAR-5; test: Growth inhibition of human OVCAR5 cells after 48 hrs by sulforhodamine B assay; assay type: functional; details: OVCAR-5, 48 h
[25] = system: CAKI-1; test: Growth inhibition of human CAKI-1 cells assessed as cell growth at 10 uM after 48 hrs by sulforhodamine B assay; assay type: functional; details: CAKI-1, 48 h, read-out: Activity
[26] = system: NCI-H322M; test: Growth inhibition of human NCI-H322M cells assessed as cell growth at 10 uM after 48 hrs by sulforhodamine B assay; assay type: functional; details: read-out: Activity
[27] = system: K562; test: Growth inhibition of human K562 cells assessed as cell growth at 10 uM after 48 hrs by sulforhodamine B assay; assay type: functional; details: K562, 48 h, read-out: Activity
[28] = system: UACC-62; test: Growth inhibition of human UACC62 cells assessed as cell growth at 10 uM after 48 hrs by sulforhodamine B assay; assay type: functional; details: UACC-62, 48 h, read-out: Activity
[29] = system: MCF7; test: Growth inhibition of human MCF7 cells assessed as cell growth at 10 uM after 48 hrs by sulforhodamine B assay; assay type: functional; details: MCF7, 48 h, read-out: Activity
[30] = system: OVCAR-8; test: Growth inhibition of human OVCAR8 cells after 48 hrs by sulforhodamine B assay; assay type: functional; details: OVCAR-8, 48 h
[31] = system: RXF 393; test: Growth inhibition of human RXF393 cells assessed as cell growth at 10 uM after 48 hrs by sulforhodamine B assay; assay type: functional; details: RXF 393, 48 h, read-out: Activity
[32] = system: NCI-H522; test: Growth inhibition of human NCI-H522 cells after 48 hrs by sulforhodamine B assay; assay type: functional; details: NCI-H522, 48 h
[33] = system: A498; test: Growth inhibition of human A498 cells after 48 hrs by sulforhodamine B assay; assay type: functional, cell-based; details: A498, 48 h
[34] = system: UACC-257; test: Growth inhibition of human UACC257 cells assessed as cell growth at 10 uM after 48 hrs by sulforhodamine B assay; assay type: functional; details: UACC-257, 48 h, read-out: Activity
[35] = system: NCI-H460; test: Growth inhibition of human NCI-H460 cells after 48 hrs by sulforhodamine B assay; assay type: functional; details: NCI-H460, 48 h
[36] = read-out: LC50 (the source's name)

Structure (SMILES): COc1cc(-c2nn(-c3cccc(NC(=O)c4ccccc4)c3)cc2-c2ccncc2)ccc1Cl
- growth at 10 µM [1]: 13.5%
- GI50 [2]: 0.85 µM
- IC50 [2]: 0.85 µM
- TGI [2]: > 100 µM
- CC50 [2, 36]: > 100 µM
- GI50 [3]: 4.59 µM
- TGI [3]: > 100 µM
- CC50 [3, 36]: > 100 µM
- growth at 10 µM [4]: 1.29%
- growth at 10 µM [5]: 11.6%
- GI50 [6]: 0.646 µM
- LC50 (concentration killing 50% of cells) [6]: > 100 µM
- TGI [6]: 6.34 µM
- growth at 10 µM [7]: 46.5%
- GI50 [8]: 0.78 µM
- LC50 [8]: > 100 µM
- TGI [8]: 54.7 µM
- growth at 10 µM [9]: 32.3%
- GI50 [10]: 0.492 µM
- LC50 [10]: > 100 µM
- TGI [10]: > 100 µM
- growth at 10 µM [11]: -1.34%
- growth at 10 µM [12]: 66.4%
- growth at 10 µM [13]: 28.8%
- GI50 [14]: 0.551 µM
- TGI [14]: > 100 µM
- CC50 [14, 36]: > 100 µM
- GI50 [15]: 0.585 µM
- LC50 (concentration killing 50% of starting cells) [15]: > 100 µM
- TGI [15]: > 100 µM
- growth at 10 µM [16]: 2.06%
- growth at 10 µM [17]: 47.4%
- GI50 [18]: 0.556 µM
- IC50 [18]: 0.56 µM
- TGI [18]: > 100 µM
- CC50 [18, 36]: > 100 µM
- GI50 [19]: 1.33 µM
- LC50 (50% lethal concentration) [19]: > 100 µM
- TGI [19]: > 100 µM
- GI50 [20]: 0.421 µM
- TGI [20]: > 100 µM
- CC50 [20, 36]: > 100 µM
- GI50 [21]: 0.534 µM
- LC50 (concentration killing 50% of cells) [21]: > 100 µM
- TGI [21]: > 100 µM
- GI50 [22]: 0.638 µM
- TGI [22]: > 100 µM
- CC50 [22, 36]: > 100 µM
- GI50 [23]: 0.335 µM
- LC50 [23]: > 100 µM
- TGI [23]: > 100 µM
- GI50 [24]: 15 µM
- LC50 (concentration killing 50% of cells) [24]: > 100 µM
- TGI [24]: > 100 µM
- growth at 10 µM [25]: 40.6%
- growth at 10 µM [26]: 52.3%
- growth at 10 µM [27]: 2.59%
- growth at 10 µM [28]: 32.5%
- growth at 10 µM [29]: 4.67%
- GI50 [30]: 0.995 µM
- TGI [30]: > 100 µM
- CC50 [30, 36]: > 100 µM
- growth at 10 µM [31]: -19.2%
- GI50 [32]: 0.317 µM
- LC50 (concentration killing 50% of cells) [32]: > 100 µM
- TGI [32]: > 100 µM
- GI50 [33]: 0.361 µM
- IC50 [33]: 0.36 µM
- TGI [33]: 3.14 µM
- CC50 [33, 36]: > 100 µM
- growth at 10 µM [34]: 8.64%
- GI50 [35]: 0.394 µM
- LC50 [35]: > 100 µM
- TGI [35]: > 100 µM
